Measured values published in ChEMBL document CHEMBL1158027, “Sesquiterpene esters of aristolochic acid from the root and stem of Aristolochia heterophylla” (J Nat Prod, 1999).

Test: Cytotoxicity against human HepG2(2.2.15) cells
Type: functional, cell-based
Work on `C/C1=C\CC/C(C=O)=C/[C@H](OC(=O)c2cc3c(c4c2c([N+](=O)[O-])cc2ccccc24)OCO3)C/C(C)=C/CC1` yielded an IC50 of 8.23 µM. In the case of `C/C1=C\CC/C(C=O)=C\[C@H](OC(=O)c2cc3c(c4c2c([N+](=O)[O-])cc2ccccc24)OCO3)C/C(C)=C/CC1`, the IC50 is reported as 7.53 µM. Compound `COc1cccc2c1cc([N+](=O)[O-])c1c(C(=O)O[C@H]3/C=C(\C=O)CC/C=C(\C)CC/C=C(\C)C3)cc3c(c12)OCO3` has an IC50 of 4.83 µM. For `COc1cccc2c1cc([N+](=O)[O-])c1c(C(=O)O[C@H]3/C=C(/C=O)CC/C=C(\C)CC/C=C(\C)C3)cc3c(c12)OCO3`, the IC50 was 5.44 µM.
